Laboratory results taken from patent publication US6696480B2, “Upregulation of type III endothelial cell nitric oxide synthase by agents that disrupt actin cytoskeletal organization” (Brigham and Women's Hospital, Inc., priority 1998, dated 2004).
Where “and” joins values, the source holds several entries; their conditions need not be identical. Equal values may be shown once. Read-outs that look alike come from different tables or passages of the source.

Assays:
ecNOS mRNA [1] = assay: Northern blotting of ecNOS steady-state mRNA in endothelial cells; assay type: cell-based, human; parameters: ecNOS mRNA levels increased to / ecNOS mRNA levels, % of basal levels / effect on basal ecNOS mRNA levels: unit of the concentration uncertain; conditions: for increase in ecNOS mRNA levels compared to ox-LDL: simvastatin 0.1 mmol/L; for ecNOS mRNA levels, % of basal levels: hypoxia + simvastatin (1 (unit uncertain))
Method: (§1) Equal amounts of total RNA (10-20 mg) were separated by 1.2% formaldehyde-agarose gel electrophoresis and transferred overnight onto Hybond nylon membranes. […] All Northern blots were subjected to stringent washing conditions (0.2× SSC/0.1% SDS at 65° C.) prior to autoradiography. RNA loading was determined by rehybridization with human GAPDH probe.

ecNOS [2] = assay: ecNOS activity, LNMA-inhibitable nitrite production (modified nitrite assay); assay type: cell-based, human
[3] = system: cerebral ischemia, left middle cerebral artery (MCA) occlusion; assay: Murine model of cerebral vascular ischemia (MCA occlusion); assay type: in vivo, SV-129 mice
From the text: Ischemia was produced by occluding the left middle cerebral artery (MCA) with a coated 8.0 nylon monofilament under anesthesia as described (Huang, Z et al., J Cereb Blood Flow Metab, 1996, 16:981-987, Huang, Z et al., Science, 1994, 265:1883-1885, Hara, H et al., J Cereb Blood Flow Metab, 1997, 1:515-526). Arterial blood pressure, heart rate, arterial oxygen pressure, and partial pressure of carbon dioxide were monitored as described (Huang, Z et al., J Cereb Blood Flow Metab, 1996, 16:981-987, Huang, Z et al., Science, 1994, 265:1883-1885, Hara, H et al., J Cereb Blood Flow Metab, 1997, 1:515-526). The filaments were withdrawn after 2 hours and after 24 h, mice were either sacrificed or tested for neurological deficits using a well-established, standardized, observer-blinded protocol as described (Huang, Z et al., J Cereb Blood Flow Metab, 1996, 16:981-987, Huang, Z et al., Science, 1994, 265:1883-1885, Hara, H et al., J Cereb Blood Flow Metab, 1997, 1:515-526). The motor deficit score range from 0 (no deficit) to 2 (complete deficit).
Brains were divided into five coronal 2-mm sections using a mouse brain matrix (RBM-200C, Activated Systems, Ann Arbor, Mich., USA). Infarction volume was quantitated with an image analysis system (M4, St. Catharines, Ontario, Canada) on 2% 2,3,5-triphenyltetrazolium chloride stained 2-mm slices. The levels of serum cholesterol, creatinine and transaminases were determined by the Tufts University Veterinary Diagnostic Laboratory (Grafton, Mass.).

[4] = system: G-protein as and b-actin mRNA; assay: Northern blotting of G-protein as and b-actin mRNA (selectivity); assay type: cell-based, human; conditions: normoxic or hypoxic conditions
Method: as §1

ecNOS protein = conditions: for effect on ecNOS expression: not chemically-activated statin (10); for increase in ecNOS protein levels compared to ox-LDL alone: co-treatment with ox-LDL, simvastatin 0.1 mmol/L; for ecNOS protein levels, % of basal levels: hypoxia (3% O2)
ecNOS mRNA [5] = assay: ecNOS mRNA half-life in the presence of actinomycin D; assay type: cell-based, human; conditions: for half-life of ecNOS mRNA (t1/2) / ecNOS mRNA half-life: actinomycin D; for ecNOS mRNA half-life: simvastatin 1 mM
ecNOS [6] = assay: ecNOS activity from tissues, arginine to citrulline conversion in mouse aortae; assay type: in vivo, SV-129 mice; conditions: 2 mg/kg, 14 days
Method: The ecNOS activities in mice aortae and brains were measured by the conversion of [^3H]arginine to [^3H]citrulline in the presence and absence of LNMA (5 mM) as described earlier.

ecNOS mRNA [7] = assay: Quantitative RT-PCR of ecNOS mRNA in mouse aortae and brains; assay type: in vivo, SV-129 mice; conditions: dose-dependent, 14 days
From the text: Total RNA from mouse aortae and brains was isolated by the guanidinium isothiocyanate method and reverse transcribed using oligo-dT (mRNA Preamplification reagents; Gibco BRL) and Taq ploymerase (Perkin-Elmer). One tenth of the sDNA was used as template for the PCR reaction. […] [NT] ID NO. 1) and 3'Primer: […] For amplification of glyceraldehyde 3-phosphate dehydrogenase (GAPDH), 0.1 nmol of the following primers amplifying a 452-bp fragment were used: 5'Primer: [NT] ID NO. 3) and 3' Primer: […] NO. 4). Denaturing was performed at 94° C. for 30 s, annealing at 60° C. for 30 s, and elongation at 72° C. for 60 s.

ecNOS gene transcription = assay: Nuclear run-on assay of ecNOS gene transcription
human endothelial cells = assay: Cellular viability (cell count, morphology, Trypan blue exclusion); conditions: simvastatin 0.01 to 0.1 mmol/L, lovastatin 10 mmol/L, up to 96 h
[8] = ox-LDL + simvastatin 0.1 mmol/L
[9] = simvastatin 1 mM alone (20% O2)
[10] = wild-type mice, 2 mg/kg, 14 days

## CC[C@H](C)C(=O)O[C@H]1C[C@@H](C)C=C2C=C[C@H](C)[C@H](CC[C@@H]3C[C@@H](O)CC(=O)O3)[C@H]21 [lovastatin]
ecNOS mRNA [1]; co-treatment with ox-LDL, lovastatin 10 mmol/L, 24 h
  increase in ecNOS mRNA levels compared to ox-LDL alone: 3.6 fold
ecNOS mRNA [1]; lovastatin (10 μM) alone
  ecNOS message increased to: 410±21%
ecNOS mRNA [1]; lovastatin (10 μM) under hypoxia
  ecNOS message increased to: 350±27%
ecNOS mRNA [1]; lovastatin alone
  increase in ecNOS mRNA levels compared to untreated cells: 36%
ecNOS mRNA [1]; ox-LDL + lovastatin 10 mmol/L, 24 h
  increase in ecNOS mRNA level compared to untreated cells: 40±9%
ecNOS [2]; normoxia and hypoxia
  concentration giving similar findings on ecNOS activity, compared to that of simvastatin: 10 fold higher
[3]; lovastatin, at higher relative concentrations (data not shown)
  reduction of cerebral infarct size: also occurred with lovastatin treatment
[4]
  change in G-protein as and b-actin mRNA levels: Neither simvastatin nor lovastatin caused any significant change
ecNOS protein
  effect on ecNOS expression: no effect

## CCC(C)(C)C(=O)O[C@H]1C[C@@H](C)C=C2C=C[C@H](C)[C@H](CC[C@@H]3C[C@@H](O)CC(=O)O3)[C@H]21 [simvastatin]
ecNOS mRNA [1]; co-treatment with ox-LDL, 48 h
  increase in ecNOS mRNA levels compared to ox-LDL: 6.3 fold
ecNOS mRNA [1]; co-treatment with ox-LDL, 72 h
  increase in ecNOS mRNA levels compared to ox-LDL: 14.5 fold
ecNOS mRNA [1]; 24 h
  ecNOS mRNA levels, % of basal levels: 195±12%
ecNOS mRNA [1]; 48 h
  ecNOS mRNA levels, % of basal levels: 530±30%
ecNOS mRNA [1]; simvastatin (1 (unit uncertain)) alone, normoxia
  ecNOS mRNA levels increased to: 340±24%
ecNOS [2]; [8]
  decrease in ecNOS activity compared to untreated cells: 28±3%
  ecNOS-dependent nitrite production: 6.4±0.3 nmol/500,000 cells/24 h
ecNOS [2]; ox-LDL + simvastatin 1 mmol/L
  ecNOS-dependent nitrite production: 12.8±2.7 nmol/500,000 cells/24 h
  increase in ecNOS activity compared to baseline: 45±6%
ecNOS [2]; [9]
  nitrite production: 30±6.5 nmol/500,000 cells/24 h
  upregulation of nitrite production: 5 fold
ecNOS [2]; simvastatin 1 mM, 3% O2, 24 h
  increase in ecNOS activity over basal activity: 3 fold
  nitrite production: 18±5.0 nmol/500,000 cells/24 h
ecNOS mRNA [5]; ox-LDL + simvastatin 0.1 mmol/L, versus ox-LDL
  prolongation of ecNOS mRNA half-life: 1.6 fold
ecNOS mRNA [5]; [8]
  half-life of ecNOS mRNA (t1/2): 22 ± 3 h
ecNOS mRNA [5]; hypoxic
  ecNOS mRNA half-life: 38 ± 4 h
ecNOS mRNA [5]; normoxic
  ecNOS mRNA half-life: 46 ± 4 h
ecNOS mRNA [5]; simvastatin alone
  prolongation of ecNOS mRNA half-life over baseline: 1.3 fold
  half-life of ecNOS mRNA (t1/2): 43 ± 4 h
ecNOS [6]
  ecNOS activity in aortae: 0.39±0.09 U/mg protein
ecNOS mRNA [7]
  increase of ecNOS message compared to that of GAPDH in aortae: 3 fold
[3]; 2 mg/kg
  increase in cerebral blood flow over basal values: 23%
[3]; 2 mg/kg, 14 days
  improvement of neurological motor deficit score compared to controls: ~2 fold
[3]; 2 mg/kg, 14 days, 2 h MCA occlusion, 22 hours of reperfusion, score 0 to 2
  neurological motor deficit score: 0.8±0.2
[3]; 20 mg/kg
  increase in cerebral blood flow over basal values: 35%
[3]; mouse, in vivo
  persistence of the effect on cerebral infarct size: up to 3 days
[3]; [10]
  cerebral infarct size: 73.8±8.5 mm3
  smaller cerebral infarct sizes compared to untreated animals: 25%
ecNOS protein; 24 h
  increase in ecNOS protein levels compared to ox-LDL alone: 1.3 fold
ecNOS protein; 72 h
  increase in ecNOS protein levels compared to ox-LDL alone: 3.3 fold
ecNOS protein; 96 h
  increase in ecNOS protein levels compared to ox-LDL alone: 8.9 fold
ecNOS protein; 48 h, simvastatin 1 mM
  ecNOS protein levels, % of basal levels: 159±13%
ecNOS protein; 48 h, simvastatin 10 mM
  ecNOS protein levels, % of basal levels: 223±21%
ecNOS protein
  effect on ecNOS expression: no effect
ecNOS protein; ox-LDL + simvastatin 0.01 mmol/L, 48 h
  decrease in ecNOS protein: 57%±8%
ecNOS protein; ox-LDL + simvastatin 0.1 mmol/L, 24 h
  decrease in ecNOS protein level: 15% (2%
ecNOS protein; ox-LDL + simvastatin 0.1 mmol/L, 48 h
  decrease in ecNOS protein: 4%±7%
ecNOS protein; ox-LDL + simvastatin 0.1 mmol/L, 72 h
  ecNOS protein levels increased above basal expression: 110% (6%
ecNOS protein; ox-LDL + simvastatin 0.1 mmol/L, 96 h
  ecNOS protein levels increased above basal expression: 124% (6%
ecNOS protein; ox-LDL + simvastatin 1 mmol/L, 48 h
  ecNOS protein levels above baseline: 146%±9% and 150% (8%
ecNOS protein; simvastatin alone (1)
  upregulation of ecNOS expression: 2.9 fold
ecNOS gene transcription; hypoxia + simvastatin 1 mM
  decrease in ecNOS gene transcription: 83±6%
ecNOS gene transcription; simvastatin alone, normoxic condition
  increase in ecNOS gene transcription: 20±5%
Human endothelial cells
  noticeable adverse effects on human endothelial cell: Neither simvastatin (0.01 to 0.1 mmol/L) nor lovastatin (10 mmol/L) produced any noticeable adverse effects
